Source: the supplement of paper PMC10307832

Assays:
Experiment in all cases: relative viability (nuclei count vs DMSO), 5 days (fraction); higher = more cells survive
Entinostat + Alpelisib = compound: Nc1ccccc1NC(=O)c1ccc(CNC(=O)OCc2cccnc2)cc1 [Entinostat] + Cc1nc(NC(=O)N2CCC[C@H]2C(N)=O)sc1-c1ccnc(C(C)(C)C(F)(F)F)c1 [Alpelisib] (partner 2 µM)
Summary of the method: (§1)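 For relative viability, nuclei counts in treated wells were divided by those in vehicle wells. Lung cancer cell lines had been pin-tool dosed in 1536-well plates the day after seeding and cultured for 5 days, then fixed and stained in one step (final 0.05% Triton X-100, 1% formaldehyde, 1 ug/ml Hoechst) and imaged at 4×. Doses were one drug alone or a fixed anchor-drug dose plus five library-drug doses (not always all listed) in √10 steps, and values are duplicate-plate medians.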

Entinostat + OSI-027 = compound: Nc1ccccc1NC(=O)c1ccc(CNC(=O)OCc2cccnc2)cc1 [Entinostat] + COc1cccc2cc(-c3nc([C@H]4CC[C@H](C(=O)O)CC4)n4ncnc(N)c34)[nH]c12 [OSI-027] (partner 0.5 µM)
Summary of the method: as §1

Entinostat + Crizotinib = compound: Nc1ccccc1NC(=O)c1ccc(CNC(=O)OCc2cccnc2)cc1 [Entinostat] + C[C@@H](Oc1cc(-c2cnn(C3CCNCC3)c2)cnc1N)c1c(Cl)ccc(F)c1Cl [Crizotinib] (partner 1 µM)
Summary of the method: as §1

Entinostat + Foretinib = compound: Nc1ccccc1NC(=O)c1ccc(CNC(=O)OCc2cccnc2)cc1 [Entinostat] + COc1cc2c(Oc3ccc(NC(=O)C4(C(=O)Nc5ccc(F)cc5)CC4)cc3F)ccnc2cc1OCCCN1CCOCC1 [Foretinib] (partner 0.25 µM)
Summary of the method: as §1

Cell Line	relative viability (Entinostat + Alpelisib; first compound 0.02 µM)	relative viability (Entinostat + Alpelisib; first compound 0.06325 µM)	relative viability (Entinostat + Alpelisib; first compound 0.2 µM)	relative viability (Entinostat + Alpelisib; first compound 0.6325 µM)	relative viability (Entinostat + Alpelisib; first compound 2 µM)	relative viability (Entinostat + OSI-027; first compound 0.02 µM)	relative viability (Entinostat + OSI-027; first compound 0.06325 µM)	relative viability (Entinostat + OSI-027; first compound 0.2 µM)	relative viability (Entinostat + OSI-027; first compound 0.6325 µM)	relative viability (Entinostat + OSI-027; first compound 2 µM)	relative viability (Entinostat + Crizotinib; first compound 0.02 µM)	relative viability (Entinostat + Crizotinib; first compound 0.06325 µM)	relative viability (Entinostat + Crizotinib; first compound 0.2 µM)	relative viability (Entinostat + Crizotinib; first compound 0.6325 µM)	relative viability (Entinostat + Crizotinib; first compound 2 µM)	relative viability (Entinostat + Foretinib; first compound 0.02 µM)	relative viability (Entinostat + Foretinib; first compound 0.06325 µM)	relative viability (Entinostat + Foretinib; first compound 0.2 µM)	relative viability (Entinostat + Foretinib; first compound 0.6325 µM)	relative viability (Entinostat + Foretinib; first compound 2 µM)
LXF-289	1.01	1.02	0.931	0.808	0.588	0.795	0.765	0.894	0.582	0.395	0.789	0.806	0.788	0.669	0.331	1.01	0.916	0.88	0.825	0.59
NCI-H23	0.773	0.666	0.82	0.674	0.364	0.711	0.774	0.648	0.463	0.287	0.5	0.545	0.407	0.39	0.166	1.05	1.09	1.01	0.445	0.43
NCI-H322M	0.817	0.826	0.738	0.866	0.675	0.608	0.54	0.558	0.483	0.371	1.03	0.961	0.98	0.809	0.651	0.978	1.16	1.15	0.993	0.854
NCI-H358	0.807	0.962	0.965	0.551	0.284	0.879	0.992	0.796	0.496	0.169	0.545	0.519	0.463	0.209	0.0928	0.755	0.81	0.66	0.41	0.124
NCI-H441	0.577	0.665	0.608	0.22	0.18	0.592	0.562	0.592	0.308	0.233	0.715	0.744	0.523	0.215	0.181	1.08	1.05	0.805	0.377	0.298
NCI-H460	0.491	0.463	0.285	0.0307	0.0143	0.606	0.575	0.335	0.0521	0.0268	0.907	0.945	0.522	0.0251	0.0158	0.967	0.954	0.699	0.193	0.0625
NCI-H520	0.836	0.848	0.963	0.764	0.451	0.335	0.277	0.274	0.385	0.407	0.735	0.613	0.779	0.413	0.251	0.686	0.941	0.803	0.683	0.626
NCI-H596	0.533	0.496	0.272	0.411	0.356	0.716	0.804	0.708	0.443	0.412	1	0.982	0.992	0.978	0.52	0.851	0.727	0.913	0.698	0.655
